# From patent US20240003908A1, “POLYOL BIOMARKERS FOR CONGENITAL DISORDERS OF GLYCOSYLATION” (Mayo Foundation for Medical Education and Research, priority 2020, published 2024)
# Marks after values point to notes of the source that are not given here.
# How the values were obtained:
# [1] = test system: urine sorbitol and mannitol; experiment: Urine polyols (GC/MS) in patients with other CDG, post-treatment with epalrestat; type: in vivo, human
# Experimental: Urine specimens were collected from patients known to have a CDG. The samples were spiked with a mixture of labeled internal standards, allowed to equilibrate, and evaporated. The dry residue was derivatized to form trimethylsilyl esters then extracted with hexane. Specimens were analyzed by GC/MS, with selected ion monitoring using ammonia chemical ionization and a stable isotope dilution method (Jansen et al. Clin Chim Acta 1986, 157:277-294; and Kaur et al., Eur J Med Genet 2019, 62(8):103708). Sorbitol levels were considered elevated when they were above 10 mmol/mol creatinine, and mannitol levels were considered elevated when they were above 15 mmol/mol creatinine.
# [2] = test system: PMM enzyme; experiment: PMM enzyme activity in PMM2-CDG patient fibroblasts treated with epalrestat (spectrophotometric); type: cell-based, human; details: for Fold change 5 μM epalrestat (PMM enzyme activity) / Fold change 10 μM epalrestat (PMM enzyme activity) / Fold change 20 μM epalrestat (PMM enzyme activity): 24 hours, baseline = 1; for Highest fold change (PMM enzyme activity): at best dose; for Best dose: of 5, 10, 20 μM
# Experimental: Effect of epalrestat on […] enzyme in vitro: Patient-derived and control fibroblasts (GM5381, GM5400; GM5757, GM00038, GM8680, GM01863, GM8400; Coriell Institute, Camden, NJ) were cultured in Minimum Essential Media (MEM; Gibco, Carlsbad, CA; 1 g/L glucose) supplemented with 10% Fetal Bovine Serum (FBS; Gibco), […] (P/S) and maintained in an incubator at 37° C., 5% CO2 in the presence and absence of epalrestat for 24 hours (Iyer et al., Disease Models & Mechanisms 12:11, 2019). Cells were cultured and harvested by trypsinization with 0.05% Trypsin-EDTA (Gibco). PMM and phosphomannose isomerase (MPI) activity were assayed by spectrophotometric measurements (Van Schaftingen and Jaeken, FEBS Lett 377:318-320, 1995). The effects of epalrestat (5 μM, 10 μM, or 20 μM) on PMM-deficient fibroblasts of 11 patients (P1-P6, P8, P10, P17, P19, P24) were evaluated.
smiles,measurement,setting,value
CC(/C=C1\SC(=S)N(CC(=O)O)C1=O)=C\c1ccccc1 [epalrestat],Mannitol (urine),"[1]; MAN1B1-CDG patient, second sample, after off-label epalrestat, first sample 14.92",2) 10.13 mmol/mol creatinine
same,Sorbitol (urine),"[1]; MAN1B1-CDG patient, second sample, post-treatment with epalrestat, first sample 10.44",2) 7.222^‡ mmol/mol creatinine
same,Sorbitol (urine),"[1]; SLC39A8-CDG patient, marked post-treatment with epalrestat",18.0^‡ mmol/mol creatinine
same,patient fibroblasts that responded,"[2]; 10 μM epalrestat, 8/10",80%
same,increase in PMM enzyme activity,"[2]; fibroblasts of P1, 5 μM epalrestat",43%
same,increase in PMM enzyme activity,"[2]; fibroblasts of P2, 10 μM epalrestat",33%
same,increase in PMM enzyme activity,"[2]; fibroblasts of P3, 10 μM epalrestat",35%
same,increase in PMM enzyme activity,"[2]; fibroblasts of P4, 20 μM epalrestat",50%
same,increase in PMM enzyme activity,"[2]; fibroblasts of P5, 5 μM epalrestat",35%
same,increase in PMM enzyme activity,"[2]; fibroblasts of P8, 10 μM epalrestat",16%
same,increase in PMM enzyme activity,"[2]; fibroblasts of P10, 5 μM epalrestat",22%
same,increase in PMM enzyme activity,"[2]; fibroblasts of P17, 20 μM epalrestat",10%
same,increase in PMM enzyme activity,"[2]; fibroblasts of P19, 20 μM epalrestat",20%
same,increase in PMM enzyme activity,"[2]; fibroblasts of P24, 10 μM epalrestat",36%
same,Fold change 5 μM epalrestat (PMM enzyme activity),"[2]; fibroblasts of subject P1, 5 μM",1.43
same,Fold change 10 μM epalrestat (PMM enzyme activity),[2]; fibroblasts of subject P1,1.2
same,Fold change 20 μM epalrestat (PMM enzyme activity),[2]; fibroblasts of subject P1,1.2
same,Highest fold change (PMM enzyme activity),[2]; fibroblasts of subject P1,1.43*
same,Best dose,[2]; fibroblasts of subject P1,5 µM
same,Fold change 5 μM epalrestat (PMM enzyme activity),"[2]; fibroblasts of subject P2, 5 μM",1.01
same,Fold change 10 μM epalrestat (PMM enzyme activity),[2]; fibroblasts of subject P2,1.33
same,Fold change 20 μM epalrestat (PMM enzyme activity),[2]; fibroblasts of subject P2,0.7
same,Highest fold change (PMM enzyme activity),[2]; fibroblasts of subject P2,1.33
same,Best dose,[2]; fibroblasts of subject P2,10 µM
same,Fold change 5 μM epalrestat (PMM enzyme activity),"[2]; fibroblasts of subject P3, 5 μM",0.86
same,Fold change 10 μM epalrestat (PMM enzyme activity),[2]; fibroblasts of subject P3,1.35
same,Fold change 20 μM epalrestat (PMM enzyme activity),[2]; fibroblasts of subject P3,0.9
same,Highest fold change (PMM enzyme activity),[2]; fibroblasts of subject P3,1.35
same,Best dose,[2]; fibroblasts of subject P3,10 µM
same,Fold change 5 μM epalrestat (PMM enzyme activity),"[2]; fibroblasts of subject P4, 5 μM",1.26
same,Fold change 10 μM epalrestat (PMM enzyme activity),[2]; fibroblasts of subject P4,1.36
same,Fold change 20 μM epalrestat (PMM enzyme activity),[2]; fibroblasts of subject P4,1.5
same,Highest fold change (PMM enzyme activity),[2]; fibroblasts of subject P4,1.36
same,Best dose,[2]; fibroblasts of subject P4,10 µM
same,Fold change 5 μM epalrestat (PMM enzyme activity),"[2]; fibroblasts of subject P5, 5 μM",1.35
same,Fold change 10 μM epalrestat (PMM enzyme activity),[2]; fibroblasts of subject P5,0.93
same,Fold change 20 μM epalrestat (PMM enzyme activity),[2]; fibroblasts of subject P5,0.9
same,Highest fold change (PMM enzyme activity),[2]; fibroblasts of subject P5,1.35
same,Best dose,[2]; fibroblasts of subject P5,5 µM
same,Fold change 5 μM epalrestat (PMM enzyme activity),"[2]; fibroblasts of subject P6, 5 μM",0.98
same,Fold change 10 μM epalrestat (PMM enzyme activity),[2]; fibroblasts of subject P6,0.97
same,Fold change 20 μM epalrestat (PMM enzyme activity),[2]; fibroblasts of subject P6,0.6
same,Fold change 5 μM epalrestat (PMM enzyme activity),"[2]; fibroblasts of subject P8, 5 μM",1.07
same,Fold change 10 μM epalrestat (PMM enzyme activity),[2]; fibroblasts of subject P8,1.16
same,Fold change 20 μM epalrestat (PMM enzyme activity),[2]; fibroblasts of subject P8,1.1
same,Highest fold change (PMM enzyme activity),[2]; fibroblasts of subject P8,1.16
same,Best dose,[2]; fibroblasts of subject P8,10 µM
same,Fold change 5 μM epalrestat (PMM enzyme activity),"[2]; fibroblasts of subject P10, 5 μM",1.22
same,Fold change 10 μM epalrestat (PMM enzyme activity),[2]; fibroblasts of subject P10,1.16
same,Fold change 20 μM epalrestat (PMM enzyme activity),[2]; fibroblasts of subject P10,1.2
same,Highest fold change (PMM enzyme activity),[2]; fibroblasts of subject P10,1.22
same,Best dose,[2]; fibroblasts of subject P10,5 µM
same,Fold change 5 μM epalrestat (PMM enzyme activity),"[2]; fibroblasts of subject P17, 5 μM",0.9
same,Fold change 10 μM epalrestat (PMM enzyme activity),[2]; fibroblasts of subject P17,0.75
same,Fold change 20 μM epalrestat (PMM enzyme activity),[2]; fibroblasts of subject P17,1.1
same,Highest fold change (PMM enzyme activity),[2]; fibroblasts of subject P17,1.1
same,Best dose,[2]; fibroblasts of subject P17,20 µM
same,Fold change 5 μM epalrestat (PMM enzyme activity),"[2]; fibroblasts of subject P19, 5 μM",0.84
same,Fold change 10 μM epalrestat (PMM enzyme activity),[2]; fibroblasts of subject P19,1.1
same,Fold change 20 μM epalrestat (PMM enzyme activity),[2]; fibroblasts of subject P19,1.2
same,Highest fold change (PMM enzyme activity),[2]; fibroblasts of subject P19,1.2
same,Best dose,[2]; fibroblasts of subject P19,20 µM
same,Fold change 5 μM epalrestat (PMM enzyme activity),"[2]; fibroblasts of subject P24, 5 μM",0.78
same,Fold change 10 μM epalrestat (PMM enzyme activity),[2]; fibroblasts of subject P24,1.36
same,Fold change 20 μM epalrestat (PMM enzyme activity),[2]; fibroblasts of subject P24,0.9
same,Highest fold change (PMM enzyme activity),[2]; fibroblasts of subject P24,1.36
same,Best dose,[2]; fibroblasts of subject P24,10 µM
same,increase in PMM enzyme activity,"[2]; nine out of ten patients, 5 μM, 10 μM or 20 μM epalrestat",≥ 10%
same,maximal increase in PMM activity,"[2]; patient fibroblasts, with at least one of 5, 10, 20 μM",≤ 50%
